In ChEMBL document CHEMBL4304811, “Development of a Water-Soluble Indolylmaleimide Derivative IM-93 Showing Dual Inhibition of Ferroptosis and NETosis” (ACS Med Chem Lett, 2019):

How the values were obtained:
[1] = test system: Tyrosine-protein kinase ABL1 (Homo sapiens), P00519 [Q252H]; test: Binding affinity to human phosphorylated ABL1 Q252H mutant expressed in mammalian expression system assessed as residual binding level at 10 uM by Kinomescan method relative to control
[2] = biological target: Tyrosine-protein kinase ABL1 (Homo sapiens) (UniProt P00519); test: Binding affinity to wild-type human non-phosphorylated ABL1 (S229 to K512 residues) expressed in mammalian expression system assessed as residual binding level at 10 uM by Kinomescan method relative to control
[3] = biological target: RAC-gamma serine/threonine-protein kinase (Homo sapiens) (UniProt Q9Y243); test: Binding affinity to wild-type human partial length AKT3 expressed in bacterial expression system assessed as residual binding level at 10 uM by Kinomescan method relative to control
Sequence of RAC-gamma serine/threonine-protein kinase (Homo sapiens) (Q9Y243 whole entry, the tested form may be a part): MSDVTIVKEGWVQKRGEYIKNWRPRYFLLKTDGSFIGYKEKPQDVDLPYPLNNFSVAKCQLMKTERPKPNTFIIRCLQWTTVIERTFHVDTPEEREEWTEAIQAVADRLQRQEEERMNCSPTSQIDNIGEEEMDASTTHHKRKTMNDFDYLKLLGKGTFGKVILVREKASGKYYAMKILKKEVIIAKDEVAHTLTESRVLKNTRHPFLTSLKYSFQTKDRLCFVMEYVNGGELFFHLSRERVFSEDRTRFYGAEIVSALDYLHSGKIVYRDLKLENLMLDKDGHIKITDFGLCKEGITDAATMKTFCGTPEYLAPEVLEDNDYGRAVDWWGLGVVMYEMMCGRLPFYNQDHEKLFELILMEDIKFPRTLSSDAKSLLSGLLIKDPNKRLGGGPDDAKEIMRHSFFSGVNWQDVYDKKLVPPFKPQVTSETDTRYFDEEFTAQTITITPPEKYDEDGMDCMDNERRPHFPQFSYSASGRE

[4] = biological target: NUAK family SNF1-like kinase 1 (Homo sapiens) (UniProt O60285); test: Binding affinity to wild-type human partial length ARK5 (E25 to I332 residues) expressed in bacterial expression system assessed as residual binding level at 10 uM by Kinomescan method relative to control
Sequence of NUAK family SNF1-like kinase 1 (Homo sapiens) (O60285 whole entry, the tested form may be a part): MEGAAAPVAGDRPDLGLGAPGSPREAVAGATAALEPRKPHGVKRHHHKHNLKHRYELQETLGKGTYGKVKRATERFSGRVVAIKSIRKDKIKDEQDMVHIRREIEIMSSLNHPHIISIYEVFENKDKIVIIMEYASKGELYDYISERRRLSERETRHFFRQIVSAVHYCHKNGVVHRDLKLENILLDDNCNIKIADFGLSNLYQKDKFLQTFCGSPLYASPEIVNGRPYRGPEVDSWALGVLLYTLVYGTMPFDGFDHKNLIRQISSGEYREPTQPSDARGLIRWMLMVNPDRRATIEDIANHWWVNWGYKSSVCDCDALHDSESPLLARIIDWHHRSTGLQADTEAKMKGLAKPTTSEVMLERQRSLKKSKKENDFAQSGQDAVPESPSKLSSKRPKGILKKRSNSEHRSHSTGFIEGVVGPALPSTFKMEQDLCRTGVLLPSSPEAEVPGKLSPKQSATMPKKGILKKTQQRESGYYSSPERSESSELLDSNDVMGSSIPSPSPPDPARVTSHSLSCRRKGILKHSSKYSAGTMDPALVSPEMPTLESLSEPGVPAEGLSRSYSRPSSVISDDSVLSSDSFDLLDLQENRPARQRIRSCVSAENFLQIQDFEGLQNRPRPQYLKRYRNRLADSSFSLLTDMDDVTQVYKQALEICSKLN

[5] = biological target: Aurora kinase A (Homo sapiens) (UniProt O14965); test: Binding affinity to wild-type human partial length AURKA (E122 to K401 residues) expressed in mammalian expression system assessed as residual binding level at 10 uM by Kinomescan method relative to control
Sequence of Aurora kinase A (Homo sapiens) (O14965 whole entry, the tested form may be a part): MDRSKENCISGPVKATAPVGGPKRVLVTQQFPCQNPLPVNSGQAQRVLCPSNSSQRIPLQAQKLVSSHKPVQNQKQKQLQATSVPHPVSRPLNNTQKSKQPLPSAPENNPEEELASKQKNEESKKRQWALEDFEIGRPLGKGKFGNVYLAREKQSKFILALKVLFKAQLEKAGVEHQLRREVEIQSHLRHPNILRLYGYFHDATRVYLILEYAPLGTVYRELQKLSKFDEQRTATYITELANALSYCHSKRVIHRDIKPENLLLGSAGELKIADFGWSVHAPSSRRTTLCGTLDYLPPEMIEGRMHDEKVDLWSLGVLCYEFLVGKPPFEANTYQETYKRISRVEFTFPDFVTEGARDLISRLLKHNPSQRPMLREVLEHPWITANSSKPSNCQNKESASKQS

[6] = biological target: Dual specificity protein kinase CLK4 (Homo sapiens) (UniProt Q9HAZ1); test: Binding affinity to wild-type human partial length CLK4 (R135 to K481 residues) expressed in bacterial expression system assessed as residual binding level at 10 uM by Kinomescan method relative to control
[7] = biological target: Casein kinase I isoform alpha-like (Homo sapiens) (UniProt Q8N752); test: Binding affinity to wild-type human full length CSNK1A1L (M1 to N337 residues) expressed in bacterial expression system assessed as residual binding level at 10 uM by Kinomescan method relative to control
[8] = biological target: Receptor tyrosine-protein kinase erbB-4 (Homo sapiens) (UniProt Q15303); test: Binding affinity to wild-type human partial length ERBB4 (L690 to K994 residues) expressed in bacterial expression system assessed as residual binding level at 10 uM by Kinomescan method relative to control
Sequence of Receptor tyrosine-protein kinase erbB-4 (Homo sapiens) (Q15303 whole entry, the tested form may be a part): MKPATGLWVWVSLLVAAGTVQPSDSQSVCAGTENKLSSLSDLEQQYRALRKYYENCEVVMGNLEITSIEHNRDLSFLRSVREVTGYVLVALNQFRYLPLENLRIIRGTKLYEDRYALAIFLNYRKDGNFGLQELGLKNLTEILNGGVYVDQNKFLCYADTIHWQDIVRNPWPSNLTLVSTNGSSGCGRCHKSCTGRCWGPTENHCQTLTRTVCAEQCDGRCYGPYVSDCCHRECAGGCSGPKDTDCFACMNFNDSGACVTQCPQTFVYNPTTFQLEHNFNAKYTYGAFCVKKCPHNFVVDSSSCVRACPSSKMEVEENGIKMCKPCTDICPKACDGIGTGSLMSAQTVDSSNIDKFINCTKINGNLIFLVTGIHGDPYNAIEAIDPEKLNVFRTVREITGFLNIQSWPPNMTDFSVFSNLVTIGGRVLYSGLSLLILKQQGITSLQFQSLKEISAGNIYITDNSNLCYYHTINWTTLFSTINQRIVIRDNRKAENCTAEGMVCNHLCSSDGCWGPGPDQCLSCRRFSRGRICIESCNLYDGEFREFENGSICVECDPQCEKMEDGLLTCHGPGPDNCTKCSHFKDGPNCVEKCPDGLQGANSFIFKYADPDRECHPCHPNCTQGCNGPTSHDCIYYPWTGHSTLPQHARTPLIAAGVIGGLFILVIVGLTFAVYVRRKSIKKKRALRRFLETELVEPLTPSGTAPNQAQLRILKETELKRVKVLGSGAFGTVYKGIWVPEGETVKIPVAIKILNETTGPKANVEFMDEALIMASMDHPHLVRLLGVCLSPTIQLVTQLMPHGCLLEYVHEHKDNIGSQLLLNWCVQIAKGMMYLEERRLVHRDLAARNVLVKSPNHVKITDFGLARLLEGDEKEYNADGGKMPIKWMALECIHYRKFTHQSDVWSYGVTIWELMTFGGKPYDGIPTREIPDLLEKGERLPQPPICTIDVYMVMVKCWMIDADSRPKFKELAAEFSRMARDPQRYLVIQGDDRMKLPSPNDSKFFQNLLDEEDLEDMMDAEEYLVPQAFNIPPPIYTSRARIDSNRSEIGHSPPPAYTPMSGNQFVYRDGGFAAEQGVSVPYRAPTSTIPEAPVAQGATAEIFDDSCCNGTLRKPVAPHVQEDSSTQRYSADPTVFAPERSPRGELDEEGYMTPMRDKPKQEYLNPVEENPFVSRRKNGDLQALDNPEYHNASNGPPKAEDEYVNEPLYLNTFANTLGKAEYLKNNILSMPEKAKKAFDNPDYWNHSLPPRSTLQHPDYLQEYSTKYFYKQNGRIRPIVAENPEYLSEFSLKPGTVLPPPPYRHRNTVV

[9] = biological target: Mitogen-activated protein kinase 4 (Homo sapiens) (UniProt P31152); test: Binding affinity to wild-type human partial length ERK4 (M1 to L365 residues) expressed in bacterial expression system assessed as residual binding level at 10 uM by Kinomescan method relative to control
Sequence of Mitogen-activated protein kinase 4 (Homo sapiens) (P31152 whole entry, the tested form may be a part): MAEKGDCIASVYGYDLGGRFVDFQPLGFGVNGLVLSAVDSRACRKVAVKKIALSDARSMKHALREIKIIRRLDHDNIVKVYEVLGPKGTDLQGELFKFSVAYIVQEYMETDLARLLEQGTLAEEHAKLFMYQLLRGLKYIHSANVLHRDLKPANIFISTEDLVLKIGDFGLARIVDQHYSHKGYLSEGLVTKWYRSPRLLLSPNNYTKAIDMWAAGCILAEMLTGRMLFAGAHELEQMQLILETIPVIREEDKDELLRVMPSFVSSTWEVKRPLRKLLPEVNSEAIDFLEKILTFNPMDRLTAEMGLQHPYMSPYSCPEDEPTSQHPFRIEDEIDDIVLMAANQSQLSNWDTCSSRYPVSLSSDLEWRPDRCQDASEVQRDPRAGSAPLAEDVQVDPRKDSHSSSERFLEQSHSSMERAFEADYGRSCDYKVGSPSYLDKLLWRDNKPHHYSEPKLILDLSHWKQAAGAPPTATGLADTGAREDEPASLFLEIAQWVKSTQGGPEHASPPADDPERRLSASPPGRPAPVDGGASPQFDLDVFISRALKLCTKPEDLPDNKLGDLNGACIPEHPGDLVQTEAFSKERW

[10] = biological target: Fibroblast growth factor receptor 2 (Homo sapiens) (UniProt P21802); test: Binding affinity to wild-type human partial length FGFR2 (D457 to E769 residues) expressed in bacterial expression system assessed as residual binding level at 10 uM by Kinomescan method relative to control
[11] = biological target: Tyrosine-protein kinase FRK (Homo sapiens) (UniProt P42685); test: Binding affinity to wild-type human partial length FRK (A215 to F503 residues) expressed in bacterial expression system assessed as residual binding level at 10 uM by Kinomescan method relative to control
[12] = biological target: Mast/stem cell growth factor receptor Kit (Homo sapiens) (UniProt P10721); test: Binding affinity to wild-type human partial length KIT (I571 to D952 residues) expressed in bacterial expression system assessed as residual binding level at 10 uM by Kinomescan method relative to control
[13] = biological target: Serine/threonine-protein kinase LATS1 (Homo sapiens) (UniProt O95835); test: Binding affinity to wild-type human partial length LATS1 (Q678 to V1130 residues) expressed in bacterial expression system assessed as residual binding level at 10 uM by Kinomescan method relative to control
[14] = biological target: LIM domain kinase 1 (Homo sapiens) (UniProt P53667); test: Binding affinity to wild-type human full length LIMK1 (M1 to D647 residues) expressed in bacterial expression system assessed as residual binding level at 10 uM by Kinomescan method relative to control
[15] = biological target: Dual specificity mitogen-activated protein kinase kinase 4 (Homo sapiens) (UniProt P45985); test: Binding affinity to wild-type human partial length MEK4 (S84 to D399 residues) expressed in mammalian expression system assessed as residual binding level at 10 uM by Kinomescan method relative to control
[16] = biological target: Myosin light chain kinase 2, skeletal/cardiac muscle (Homo sapiens) (UniProt Q9H1R3); test: Binding affinity to wild-type human partial length MYLK2 (D258 to K570 residues) expressed in bacterial expression system assessed as residual binding level at 10 uM by Kinomescan method relative to control
[17] = biological target: Serine/threonine-protein kinase Nek3 (Homo sapiens) (UniProt P51956); test: Binding affinity to wild-type human full length NEK3 (M1 to R506 residues) expressed in mammalian expression system assessed as residual binding level at 10 uM by Kinomescan method relative to control
Sequence of Serine/threonine-protein kinase Nek3 (Homo sapiens) (P51956 whole entry, the tested form may be a part): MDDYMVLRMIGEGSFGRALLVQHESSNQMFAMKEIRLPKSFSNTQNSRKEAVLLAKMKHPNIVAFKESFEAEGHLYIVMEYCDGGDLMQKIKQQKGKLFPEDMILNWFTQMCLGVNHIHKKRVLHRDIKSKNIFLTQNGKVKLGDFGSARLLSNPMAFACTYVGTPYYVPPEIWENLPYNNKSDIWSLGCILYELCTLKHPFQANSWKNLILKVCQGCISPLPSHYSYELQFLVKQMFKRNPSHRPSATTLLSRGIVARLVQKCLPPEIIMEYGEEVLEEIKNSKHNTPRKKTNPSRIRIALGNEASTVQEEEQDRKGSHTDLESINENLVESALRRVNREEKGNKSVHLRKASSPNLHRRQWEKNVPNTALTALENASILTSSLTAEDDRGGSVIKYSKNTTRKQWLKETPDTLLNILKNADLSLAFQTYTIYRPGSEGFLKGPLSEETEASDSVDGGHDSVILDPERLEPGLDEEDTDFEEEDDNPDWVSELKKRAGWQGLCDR

[18] = biological target: Serine/threonine-protein kinase Nek7 (Homo sapiens) (UniProt Q8TDX7); test: Binding affinity to wild-type human full length NEK7 (M1 to S302 residues) expressed in bacterial expression system assessed as residual binding level at 10 uM by Kinomescan method relative to control
[19] = test system: Phosphatidylinositol 4,5-bisphosphate 3-kinase catalytic subunit alpha isoform (Homo sapiens), P42336 [E542K]; test: Binding affinity to human partial length PIK3CA E542K mutant (R108 to N1068 residues) expressed in mammalian expression system assessed as residual binding level at 10 uM by Kinomescan method relative to control
Sequence of Phosphatidylinositol 4,5-bisphosphate 3-kinase catalytic subunit alpha isoform (Homo sapiens), P42336 [E542K] (P42336 whole entry E542K, the tested form may be a part, canonical isoform): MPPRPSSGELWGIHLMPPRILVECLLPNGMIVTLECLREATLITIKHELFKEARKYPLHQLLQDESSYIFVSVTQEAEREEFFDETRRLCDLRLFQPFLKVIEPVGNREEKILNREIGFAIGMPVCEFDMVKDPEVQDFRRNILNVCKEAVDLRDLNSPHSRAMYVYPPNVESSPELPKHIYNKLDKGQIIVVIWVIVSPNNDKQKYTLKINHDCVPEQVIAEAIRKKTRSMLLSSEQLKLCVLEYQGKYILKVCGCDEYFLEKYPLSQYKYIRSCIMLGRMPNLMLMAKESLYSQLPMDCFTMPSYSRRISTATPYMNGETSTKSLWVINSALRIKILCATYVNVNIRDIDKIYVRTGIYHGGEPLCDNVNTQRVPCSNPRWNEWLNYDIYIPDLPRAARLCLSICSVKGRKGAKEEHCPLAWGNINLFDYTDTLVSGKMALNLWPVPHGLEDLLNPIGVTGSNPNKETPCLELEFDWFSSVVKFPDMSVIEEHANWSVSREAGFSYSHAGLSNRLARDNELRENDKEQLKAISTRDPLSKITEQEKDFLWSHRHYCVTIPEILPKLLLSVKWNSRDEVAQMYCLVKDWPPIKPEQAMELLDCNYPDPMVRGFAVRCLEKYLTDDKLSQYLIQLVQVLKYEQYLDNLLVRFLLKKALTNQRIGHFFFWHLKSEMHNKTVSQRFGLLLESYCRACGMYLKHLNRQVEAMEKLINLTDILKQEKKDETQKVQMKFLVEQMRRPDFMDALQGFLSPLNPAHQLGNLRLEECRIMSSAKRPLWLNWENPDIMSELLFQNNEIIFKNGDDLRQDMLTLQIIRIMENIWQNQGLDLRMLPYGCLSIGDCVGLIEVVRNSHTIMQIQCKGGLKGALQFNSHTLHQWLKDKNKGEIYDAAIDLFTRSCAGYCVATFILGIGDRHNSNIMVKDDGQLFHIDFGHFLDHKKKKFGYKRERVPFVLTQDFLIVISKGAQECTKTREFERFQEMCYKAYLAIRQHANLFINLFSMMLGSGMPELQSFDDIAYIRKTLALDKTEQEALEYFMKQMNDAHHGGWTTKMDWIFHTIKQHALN

[20] = biological target: Phosphatidylinositol 4-phosphate 5-kinase type-1 alpha (Homo sapiens) (UniProt Q99755); test: Binding affinity to wild-type human full length PIP5K1A (M1 to H562 residues) expressed in bacterial expression system assessed as residual binding level at 10 uM by Kinomescan method relative to control
[21] = test system: Proto-oncogene tyrosine-protein kinase receptor Ret (Homo sapiens), P07949 [V804M]; test: Binding affinity to human partial length RET V804M mutant (E713 to D1014 residues) expressed in bacterial expression system assessed as residual binding level at 10 uM by Kinomescan method relative to control
[22] = biological target: Serine/threonine-protein kinase Sgk3 (Homo sapiens) (UniProt Q96BR1); test: Binding affinity to wild-type human partial length SGK3 (M119 to L496 residues) expressed in mammalian expression system assessed as residual binding level at 10 uM by Kinomescan method relative to control
[23] = biological target: Serine/threonine-protein kinase WNK1 (Homo sapiens) (UniProt Q9H4A3); test: Binding affinity to wild-type human partial length WNK1 (Q194 to A490 residues) expressed in mammalian expression system assessed as residual binding level at 10 uM by Kinomescan method relative to control
[24] = biological target: Mitogen-activated protein kinase kinase kinase 19 (Homo sapiens) (UniProt Q56UN5); test: Binding affinity to wild-type human partial length YSK4 (T1019 to H1328 residues) expressed in mammalian expression system assessed as residual binding level at 10 uM by Kinomescan method relative to control

## CC(C)N1C(=O)C(NCCCN(C)C)=C(c2cn(C)c3ccccc23)C1=O.Cl
[1]
  Activity: 84%
[2]
  Activity: 84%
[3]
  Activity: 99%
[4]
  Activity: 94%
[5]
  Activity: 90%
[6]
  Activity: 95%
[7]
  Activity: 99%
[8]
  Activity: 100%
[9]
  Activity: 100%
[10]
  Activity: 100%
[11]
  Activity: 100%
[12]
  Activity: 99%
[13]
  Activity: 96%
[14]
  Activity: 100%
[15]
  Activity: 100%
[16]
  Activity: 100%
[17]
  Activity: 94%
[18]
  Activity: 95%
[19]
  Activity: 87%
[20]
  Activity: 96%
[21]
  Activity: 97%
[22]
  Activity: 89%
[23]
  Activity: 68%
[24]
  Activity: 96%
